According to PMC2819846 (Mutation research, 2008):

Experiments:
[1] = test system: Salmonella TA98; assay: Salmonella plate-incorporation mutagenicity assay, strain TA98, with S9 mix; assay type: cell-based
[2] = test system: Salmonella TA100; assay: Salmonella plate-incorporation mutagenicity assay, strain TA100; assay type: cell-based
[3] = test system: Salmonella TA104; assay: Salmonella plate-incorporation mutagenicity assay, strain TA104, with S9 mix; assay type: cell-based
[4] = test system: strain TA100; assay type: cell-based, Salmonella; conditions: TA100 liquid-suspension, 10 µg/ml
[5] = test system: DNA from Salmonella TA100; assay: Stable DNA adducts by 32P-postlabeling in DNA of treated TA100; assay type: cell-based; conditions: TA100, 10 µg/ml; DMSO 0.024 ± 0.000
[6] = test system: DNA from Salmonella TA100; assay: Abasic sites by aldehydic-site assay in DNA of treated TA100; assay type: cell-based; conditions: TA100, 10 µg/ml; DMSO 5.9 ± 0.33
[7] = test system: Salmonella; conditions: cited from earlier work
[8] = incubation with rat liver microsomes; cited from earlier work

**Q.** With `c1ccc2c(c1)ccc1ccc3sccc3c12` [P[3,4-b]T, Phenanthro[3,4,-b]thiophene] as the compound, how does the Rev/plate ([1]; TA98 +S9, Test 1, 2 µg/plate, zero-dose 33/40/39) read?
**A.** Its Rev/plate is 81 rev/plate.

**Q.** What about the Rev/plate ([1]; TA98 +S9, Test 1, 5 µg/plate, zero-dose 33/40/39) of the same compound?
**A.** Its Rev/plate is 80 rev/plate.

**Q.** And the Rev/plate ([1]; TA98 +S9, Test 1, 10 µg/plate, zero-dose 33/40/39)?
**A.** The Rev/plate was 62 rev/plate.

**Q.** And the Rev/plate ([1]; TA98 +S9, Test 1, 20 µg/plate, zero-dose 33/40/39)?
**A.** Its Rev/plate is 54 rev/plate.

**Q.** What about the Rev/plate ([1]; TA98 +S9, Test 1, 40 µg/plate, zero-dose 33/40/39) of the same compound?
**A.** The Rev/plate was 60 rev/plate.

**Q.** What about the Rev/plate ([1]; TA98 +S9, Test 1, 80 µg/plate, zero-dose 33/40/39) of the same compound?
**A.** The Rev/plate was 55 rev/plate.

**Q.** And the Rev/plate ([1]; TA98 +S9, Test 2, 0.05 µg/plate, zero-dose 43/41/30)?
**A.** Its Rev/plate is 30/40.

**Q.** What about the Rev/plate ([1]; TA98 +S9, Test 2, 0.1 µg/plate, zero-dose 43/41/30) of the same compound?
**A.** Its Rev/plate is 31/33.

**Q.** What about the Rev/plate ([1]; TA98 +S9, Test 2, 0.25 µg/plate, zero-dose 43/41/30) of the same compound?
**A.** The Rev/plate was 33/32.

**Q.** And the Rev/plate ([1]; TA98 +S9, Test 2, 0.5 µg/plate, zero-dose 43/41/30)?
**A.** Its Rev/plate is 58/34.

**Q.** And the Rev/plate ([1]; TA98 +S9, Test 3, 0.05 µg/plate, zero-dose 49/50/50)?
**A.** The Rev/plate was 57/49.

**Q.** And the Rev/plate ([1]; TA98 +S9, Test 3, 0.1 µg/plate, zero-dose 49/50/50)?
**A.** Its Rev/plate is 50/51.

**Q.** What about the Rev/plate ([1]; TA98 +S9, Test 3, 0.25 µg/plate, zero-dose 49/50/50) of the same compound?
**A.** The Rev/plate was 40/63.

**Q.** And the Rev/plate ([1]; TA98 +S9, Test 3, 0.5 µg/plate, zero-dose 49/50/50)?
**A.** Its Rev/plate is 66/69.

**Q.** What about the “Mutagenic potency, Revertants/µg ± S.E., TA98” value ([1]; plate-incorporation, +S9) of the same compound?
**A.** The value was 0.2 ± 0.2 rev/µg.

**Q.** And the Rev/plate ([2]; TA100 +S9, Test 2, 0.05 µg/plate, zero-dose 84/78/80)?
**A.** The Rev/plate was 131/124.

**Q.** What about the Rev/plate ([2]; TA100 +S9, Test 2, 0.1 µg/plate, zero-dose 84/78/80) of the same compound?
**A.** The Rev/plate was 120/128.

**Q.** What about the Rev/plate ([2]; TA100 +S9, Test 2, 0.25 µg/plate, zero-dose 84/78/80) of the same compound?
**A.** The Rev/plate was 235/243.

**Q.** What about the Rev/plate ([2]; TA100 +S9, Test 2, 0.5 µg/plate, zero-dose 84/78/80) of the same compound?
**A.** The Rev/plate was 389/354.

**Q.** What about the Rev/plate ([2]; TA100 +S9, Test 3, 0.05 µg/plate, zero-dose 127/118/125) of the same compound?
**A.** Its Rev/plate is 151/163.

**Q.** What about the Rev/plate ([2]; TA100 +S9, Test 3, 0.1 µg/plate, zero-dose 127/118/125) of the same compound?
**A.** Its Rev/plate is 187/201.

**Q.** And the Rev/plate ([2]; TA100 +S9, Test 3, 0.25 µg/plate, zero-dose 127/118/125)?
**A.** Its Rev/plate is 344/311.

**Q.** And the Rev/plate ([2]; TA100 +S9, Test 3, 0.5 µg/plate, zero-dose 127/118/125)?
**A.** The Rev/plate was 450/508.

**Q.** And the Rev/plate ([2]; TA100 +S9, Test 4, 0.05 µg/plate, zero-dose 112/140/115)?
**A.** Its Rev/plate is 144/123.

**Q.** What about the Rev/plate ([2]; TA100 +S9, Test 4, 0.1 µg/plate, zero-dose 112/140/115) of the same compound?
**A.** Its Rev/plate is 159/169.

**Q.** And the Rev/plate ([2]; TA100 +S9, Test 4, 0.25 µg/plate, zero-dose 112/140/115)?
**A.** Its Rev/plate is 216/227.

**Q.** And the Rev/plate ([2]; TA100 +S9, Test 4, 0.5 µg/plate, zero-dose 112/140/115)?
**A.** Its Rev/plate is 333/364.

**Q.** And the Rev/plate ([2]; TA100 +S9, Test 5, 0.05 µg/plate, zero-dose 102/119/99)?
**A.** Its Rev/plate is 136/140.

**Q.** What about the Rev/plate ([2]; TA100 +S9, Test 5, 0.1 µg/plate, zero-dose 102/119/99) of the same compound?
**A.** The Rev/plate was 175/132.

**Q.** What about the Rev/plate ([2]; TA100 +S9, Test 5, 0.25 µg/plate, zero-dose 102/119/99) of the same compound?
**A.** The Rev/plate was 237/166.

**Q.** And the Rev/plate ([2]; TA100 +S9, Test 5, 0.5 µg/plate, zero-dose 102/119/99)?
**A.** The Rev/plate was 366/305.

**Q.** What about the “Mutagenic potency, Revertants/µg ± S.E., TA100” value ([2]; plate-incorporation, +S9) of the same compound?
**A.** The value was 550 ± 61 rev/µg.

**Q.** And the “Mutagenicity call TA100” value ([2]; plate-incorporation, +S9)?
**A.** Its value is “(+) (Called mutagenic (+) based on showing reproducible, dose-related increases in rev/plate that reached or exceeded 2-fold relative to zero-dose controls)”.

**Q.** And the Rev/plate ([3]; TA104 +S9, Test 2, 0.5 µg/plate, zero-dose 276/260/270)?
**A.** Its Rev/plate is 335/385.

**Q.** And the Rev/plate ([3]; TA104 +S9, Test 2, 1 µg/plate, zero-dose 276/260/270)?
**A.** The Rev/plate was 461/542.

**Q.** And the Rev/plate ([3]; TA104 +S9, Test 2, 2 µg/plate, zero-dose 276/260/270)?
**A.** The Rev/plate was 569/553.

**Q.** And the Rev/plate ([3]; TA104 +S9, Test 2, 5 µg/plate, zero-dose 276/260/270)?
**A.** Its Rev/plate is 582/601.

**Q.** And the Rev/plate ([3]; TA104 +S9, Test 3, 0.5 µg/plate, zero-dose 402/395/336)?
**A.** Its Rev/plate is 507/473.

**Q.** What about the Rev/plate ([3]; TA104 +S9, Test 3, 1 µg/plate, zero-dose 402/395/336) of the same compound?
**A.** The Rev/plate was 571/559.

**Q.** And the Rev/plate ([3]; TA104 +S9, Test 3, 2 µg/plate, zero-dose 402/395/336)?
**A.** The Rev/plate was 604/630.

**Q.** And the Rev/plate ([3]; TA104 +S9, Test 3, 5 µg/plate, zero-dose 402/395/336)?
**A.** The Rev/plate was 535/679.

**Q.** What about the “Mutagenic potency, Revertants/µg ± S.E., TA104” value ([3]; plate-incorporation, +S9) of the same compound?
**A.** Its value is 210 ± 84 rev/µg.

**Q.** And the “Fold increase in mutant frequency relative to DMSO-treated cells” value [4]?
**A.** Its value is 5.3 fold.

**Q.** What about the “Rev/10^6 survivors” value ([4]; DMSO 0.8) of the same compound?
**A.** Its value is 4.3 Rev/10^6 survivors.

**Q.** And the Percent survival ([4]; DMSO 100)?
**A.** The Percent survival was 24%.

**Q.** And the “Stable adducts/10^8 nucleotides ± S.E” value [5]?
**A.** Its value is 0.090 ± 0.007 adducts/10^8 nucleotides.

**Q.** What about the “Abasic sites/10^5 nucleotides ± S.E” value [6] of the same compound?
**A.** The value was 6.2 ± 0.26 sites/10^5 nucleotides.

**Q.** What about the “Reported Mutagenicity” value [7] of the same compound?
**A.** Its value is “mutagenic”.

**Q.** And the “Major relatively nonpolar metabolite(s), share of the total metabolites” value [8]?
**A.** Its value is 80–96%.
